{"source": "paper PMC5303821", "about": "“Major sulfonate transporter Soa1 in Saccharomyces cerevisiae and considerable substrate diversity in its fungal family” (Nature Communications, 2017)", "molecules": {"B1": {"name": "AstA (Aspergillus nidulans) (protein)", "chain": "MADYKSTNPTVENKDDVAVPEYVIDWTLEEETKAKRKLDLMIMPILTLGFFCLQLDRGNMANAITDNFMEDVGINQDQFNVGQQMLSLGIVLTEIPSNMILYRVGPGKWLTLQLFLFGIVSTFQAFQRGYGAFIATRFLLGITESGFIPGGLWTLSTWYTRDETAKRVMIFYFGNQIGQASAKLLAYGILHMRGVGGQSGWFWLFALMGSFTVFSGFIFGFFLLDSFKNPHSTFLPKMSRFTERELHILQTRVLLDDPMKGKKKRKIGLGAFKRAFTDWRIWVHFLITLSNNGPQRAFDTYAPSIVTSFGFGRLVSNAMAAVGLFLQVPVSFAFSWVSDHYNRRGETVMLGFFCHLLGYIFNRTFTDVNLRGVRYFGVVWTQTFGTFSHPLNIAWLSLTCKDSEQRALAMAGVIMNANIAGIYGAQIFRSDDKPLYRRGFSVALSVLAVGLVLAIVRYVDTMIHRRRKLQAVEDGSEQDTDADHKLT", "notes": "full-length, codon-optimized synthetic gene in SOA1 locus of S. cerevisiae sul1 sul2 soa1 deletion strain"}}, "key": {"[1]": {"biological_target": "T1, Soa1 (YIL166C) (Saccharomyces cerevisiae, UniProt P40445)", "T1 construct": "full-length, native SOA1 locus, in sulfur-starved S. cerevisiae cells", "T1 sequence (P40445 1-542)": "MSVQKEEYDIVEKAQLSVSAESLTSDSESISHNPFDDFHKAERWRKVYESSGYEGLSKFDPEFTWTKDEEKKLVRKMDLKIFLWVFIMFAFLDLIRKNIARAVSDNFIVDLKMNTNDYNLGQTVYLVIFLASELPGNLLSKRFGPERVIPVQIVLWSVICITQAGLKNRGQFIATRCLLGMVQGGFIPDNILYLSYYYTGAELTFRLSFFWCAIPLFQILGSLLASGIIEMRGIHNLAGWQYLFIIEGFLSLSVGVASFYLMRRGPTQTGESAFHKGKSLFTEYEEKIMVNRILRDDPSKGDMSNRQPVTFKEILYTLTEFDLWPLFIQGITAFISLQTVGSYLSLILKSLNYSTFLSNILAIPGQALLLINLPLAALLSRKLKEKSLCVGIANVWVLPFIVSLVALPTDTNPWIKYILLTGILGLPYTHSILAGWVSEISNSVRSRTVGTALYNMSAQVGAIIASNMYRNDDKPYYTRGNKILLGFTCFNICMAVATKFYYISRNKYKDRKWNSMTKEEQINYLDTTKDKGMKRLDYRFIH", "assay": "growth rate of sul1 sul2 deletion strain (Monod fit), not direct uptake", "assay_type": "cell-based", "conditions": "cell growth constant, not transport Km"}, "[2]": {"substrate": "O=S(=O)(O)O", "assay": "radiolabelled uptake in sulfur-starved cells", "assay_type": "cell-based, Aspergillus nidulans", "conditions": "pH 6.5 Bis-Tris, 30 °C, 1 min uptake, labelled compound ([35S]), H+ symport, sul1 sul2 soa1 deletion background"}}}
{"molecule": "O=S(=O)(O)S", "note": "[thiosulfate]", "values": [{"measurement": "Ks (half-velocity constant for growth)", "setting": "[1]; pH 6.5, thiosulfate as sole sulfur source", "result": "75.8 ± 6.0", "unit": "µM"}]}
{"molecule": "O=S(O)O", "note": "[sulfite]", "values": [{"measurement": "Ks (half-velocity constant for growth)", "setting": "[1]; pH 6.5, sulfite as sole sulfur source", "result": "67.4 ± 8.3", "unit": "µM"}]}
{"molecule": "B1", "values": [{"measurement": "Km", "setting": "[2]", "result": "7.50 ± 0.53", "unit": "µM"}]}
